# In patent US20140377365A1, “SUSTAINED-RELEASE FORMULATION OF ROTIGOTINE” (MAP Pharmaceuticals, Inc., priority 2013, published 2014):
# Assay: In situ rotigotine salt screening (precipitate formation in ethanol/HFA 227 solution formulation)
# Format: physicochemical
# Conditions: 1 mg/mL rotigotine free base plus acid in 10% (w/w) ethanol in HFA 227; another week at 5° C. after 1 week at RT
# Method: Rotigotine, bulk drug substance, was purchased from Chemagis (Perrigo API). A stock solution of rotigotine was prepared by dissolving rotigotine particles in ethanol at 10 mg/mL. With 1.5 mL rotigotine stock solution added to formulation bottles, each formulation bottle contained 15 mg rotigotine. For preparation of acid stock solutions, it was assumed that complete reaction or ion-pairing between rotigotine and acid. Based on the molecular weight and number of anions of each acid as listed in Table 1, acids stock solutions were prepared by dissolving the required amount in ethanol.
# Each formulation bottle was filed with 1.5 mL of rotigotine stock solution and 1.0 ml, of acid stock solution. The formulation bottles (PET bottles) were then sealed with continuous valves and vortexed for 30 seconds to mix the solution well. Finally, 17.6 g of 1,1,1,2,3,3,3-heptafluoropropane (HFA227 (Mexichem)) to make a final volume of 15 mL of rotigotine formulation. All the bottles were hand shaken for 10 seconds.
# All in situ salt screening samples were made as 1 mg/mL of rotigtine free base in 10% (w/w) ethanol in HFA 227. Acids corresponding to the salt forms in Table 1 were added according to the molar ratio with rotigotine for complete reaction. As 1 mg/mL was the minimal required dose at the time of experiment, all formulations were tested at this level to screen out non-solution salt formulations.
# These were the rotigotine citrate, fumarate, succinate, sulfate, tartrate, xinafoate salt formulations. […] rotigotine salt formulations were immediately ruled out as the precipitate formation was not desired. All clear solution samples were stored at room temperature (RT) for 1 week. […] These were rotigotine acetate, benzoate and mesylate salt formulations. These 3 rotigotine salt formulations were also ruled out as precipitate formation is not desired. The rest of the samples remained as clear solutions (stable) at after another week at 5° C.
row,"Observation, 1 week at 5° C.",Molecule
1,solution,"CC(O)C(=O)O.CCCN(CCc1cccs1)[C@H]1CCc2c(O)cccc2C1 [Lactate, rotigotine lactate]"
2,solution,rotigotine palmitate
3,solution,rotigotine pamoate
4,solution,rotigotine stearate

# The next lines start with the molecule.
row,Molecule,"Observation, 1 week at 5° C."
1,rotigotine glycolate,solution
2,rotigotine maleate,solution
3,rotigotine propionate,solution

# Same assay, conditions: 1 mg/mL rotigotine free base plus acid in 10% (w/w) ethanol in HFA 227; immediately upon preparation
row,"Observation, Immediate",Molecule
1,solution,"CC(=O)O.CCCN(CCc1cccs1)[C@H]1CCc2c(O)cccc2C1 [Acetate, rotigotine acetate]"
2,solution,"CC(O)C(=O)O.CCCN(CCc1cccs1)[C@H]1CCc2c(O)cccc2C1 [Lactate, rotigotine lactate]"
3,white precipitate,Fumarate
4,solution,rotigotine palmitate
5,solution,rotigotine pamoate
6,solution,rotigotine stearate

# Continued, molecule first:
row,Molecule,"Observation, Immediate"
1,O=S(=O)(O)O [Sulfate],white precipitate
2,Benzoate,solution
3,Tartrate,white precipitate
4,rotigotine citrate,white precipitate
5,rotigotine glycolate,solution
6,rotigotine maleate,solution
7,rotigotine propionate,solution

# Same assay, conditions: 1 mg/mL rotigotine free base plus acid in 10% (w/w) ethanol in HFA 227; stored 1 week at room temperature
row,"Observation, 1 week at RT",Molecule
1,red precipitate,"CC(=O)O.CCCN(CCc1cccs1)[C@H]1CCc2c(O)cccc2C1 [Acetate, rotigotine acetate]"
2,solution,"CC(O)C(=O)O.CCCN(CCc1cccs1)[C@H]1CCc2c(O)cccc2C1 [Lactate, rotigotine lactate]"
3,solution,rotigotine palmitate
4,solution,rotigotine pamoate
5,solution,rotigotine stearate

# Further lines, the molecule ahead of its results:
row,Molecule,"Observation, 1 week at RT"
1,Benzoate,red precipitate
2,rotigotine glycolate,solution
3,rotigotine maleate,solution
4,rotigotine propionate,solution

# Same assay, conditions: 1 mg/mL, 10% (w/w) ethanol in HFA 227
row,Solution formulation at the minimum required concentration,Molecule
1,stayed in solution,rotigotine maleate
